Columns and labels:
[1] = molecular target: T1, Serine/threonine-protein kinase BRSK2 (Homo sapiens) (UniProt Q8IWQ3); assay: Inhibition of BRSK2 (unknown origin) assessed as residual activity at 100 nM by KINOMEscan analysis relative to control
T1 sequence (whole entry): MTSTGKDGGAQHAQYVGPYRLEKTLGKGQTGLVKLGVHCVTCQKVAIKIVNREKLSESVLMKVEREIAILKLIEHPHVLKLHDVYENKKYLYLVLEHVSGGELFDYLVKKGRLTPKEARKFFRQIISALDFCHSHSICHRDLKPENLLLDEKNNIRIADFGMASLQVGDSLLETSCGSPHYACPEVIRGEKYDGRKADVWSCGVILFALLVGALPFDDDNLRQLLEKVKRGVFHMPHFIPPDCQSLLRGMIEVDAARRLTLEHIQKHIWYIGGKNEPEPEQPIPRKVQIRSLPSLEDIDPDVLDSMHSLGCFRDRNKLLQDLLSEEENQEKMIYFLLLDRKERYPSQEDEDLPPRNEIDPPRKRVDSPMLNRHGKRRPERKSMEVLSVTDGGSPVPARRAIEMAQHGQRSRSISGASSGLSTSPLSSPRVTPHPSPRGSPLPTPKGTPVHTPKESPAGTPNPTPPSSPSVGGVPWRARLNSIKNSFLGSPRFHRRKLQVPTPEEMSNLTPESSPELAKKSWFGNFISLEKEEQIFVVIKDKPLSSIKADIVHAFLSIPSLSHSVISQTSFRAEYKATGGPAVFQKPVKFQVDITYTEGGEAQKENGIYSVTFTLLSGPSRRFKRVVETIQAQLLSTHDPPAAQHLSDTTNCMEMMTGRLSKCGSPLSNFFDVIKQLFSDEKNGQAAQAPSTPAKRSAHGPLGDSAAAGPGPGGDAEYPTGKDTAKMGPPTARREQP

[2] = molecular target: Cyclin-dependent kinase 4/cyclin D1 (Homo sapiens) (UniProt P11802+P24385); assay: Inhibition of CDK4-cyclin D1 (unknown origin) assessed as residual activity at 100 nM by KINOMEscan analysis relative to control; format: protein-complex assay
[3] = molecular target: Death-associated protein kinase 1 (Homo sapiens) (UniProt P53355); assay: Inhibition of DAPK1 (unknown origin) assessed as residual activity at 100 nM by KINOMEscan analysis relative to control
Sequence of Death-associated protein kinase 1 (Homo sapiens) (P53355 whole entry, looked up): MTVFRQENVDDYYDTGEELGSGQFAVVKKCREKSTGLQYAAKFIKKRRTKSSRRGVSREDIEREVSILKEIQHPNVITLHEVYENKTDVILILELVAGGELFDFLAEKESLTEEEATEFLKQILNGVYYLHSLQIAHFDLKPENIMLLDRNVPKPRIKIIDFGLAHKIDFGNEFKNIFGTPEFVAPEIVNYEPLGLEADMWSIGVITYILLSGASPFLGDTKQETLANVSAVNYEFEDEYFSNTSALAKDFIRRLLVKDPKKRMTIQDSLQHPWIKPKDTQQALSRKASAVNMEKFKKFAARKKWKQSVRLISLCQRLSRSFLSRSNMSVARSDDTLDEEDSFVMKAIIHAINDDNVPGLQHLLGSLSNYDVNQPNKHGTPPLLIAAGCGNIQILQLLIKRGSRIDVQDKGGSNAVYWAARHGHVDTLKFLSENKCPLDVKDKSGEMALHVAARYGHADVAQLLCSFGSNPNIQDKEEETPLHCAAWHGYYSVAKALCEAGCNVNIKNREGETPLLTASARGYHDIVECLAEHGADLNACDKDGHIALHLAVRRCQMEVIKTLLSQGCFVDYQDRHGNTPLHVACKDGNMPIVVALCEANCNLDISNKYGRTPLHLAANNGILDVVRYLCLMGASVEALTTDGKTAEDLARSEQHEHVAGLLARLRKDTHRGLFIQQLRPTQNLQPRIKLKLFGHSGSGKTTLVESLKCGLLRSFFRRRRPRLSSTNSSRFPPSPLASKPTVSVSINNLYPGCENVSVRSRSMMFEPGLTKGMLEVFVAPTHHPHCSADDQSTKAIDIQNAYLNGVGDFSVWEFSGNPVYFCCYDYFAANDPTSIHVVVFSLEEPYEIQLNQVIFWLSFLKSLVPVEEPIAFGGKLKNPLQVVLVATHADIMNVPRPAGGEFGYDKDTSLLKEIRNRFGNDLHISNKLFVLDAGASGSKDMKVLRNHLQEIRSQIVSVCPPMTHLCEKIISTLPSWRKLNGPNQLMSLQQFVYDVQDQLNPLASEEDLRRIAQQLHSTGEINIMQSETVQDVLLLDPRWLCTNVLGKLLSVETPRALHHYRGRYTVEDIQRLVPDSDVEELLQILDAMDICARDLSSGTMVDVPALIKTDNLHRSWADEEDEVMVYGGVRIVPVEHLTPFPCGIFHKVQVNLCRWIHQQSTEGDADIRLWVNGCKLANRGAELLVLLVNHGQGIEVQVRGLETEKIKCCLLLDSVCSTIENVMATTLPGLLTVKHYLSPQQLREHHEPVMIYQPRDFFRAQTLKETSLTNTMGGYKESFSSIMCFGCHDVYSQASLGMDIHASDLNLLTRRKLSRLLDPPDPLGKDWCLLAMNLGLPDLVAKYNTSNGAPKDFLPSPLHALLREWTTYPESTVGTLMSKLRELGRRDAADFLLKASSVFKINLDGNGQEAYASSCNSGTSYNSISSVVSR

[4] = molecular target: G protein-coupled receptor kinase 4 (Homo sapiens) (UniProt P32298); assay: Inhibition of GRK4 (unknown origin) assessed as residual activity at 100 nM by KINOMEscan analysis relative to control
Sequence of G protein-coupled receptor kinase 4 (Homo sapiens) (P32298 whole entry, looked up): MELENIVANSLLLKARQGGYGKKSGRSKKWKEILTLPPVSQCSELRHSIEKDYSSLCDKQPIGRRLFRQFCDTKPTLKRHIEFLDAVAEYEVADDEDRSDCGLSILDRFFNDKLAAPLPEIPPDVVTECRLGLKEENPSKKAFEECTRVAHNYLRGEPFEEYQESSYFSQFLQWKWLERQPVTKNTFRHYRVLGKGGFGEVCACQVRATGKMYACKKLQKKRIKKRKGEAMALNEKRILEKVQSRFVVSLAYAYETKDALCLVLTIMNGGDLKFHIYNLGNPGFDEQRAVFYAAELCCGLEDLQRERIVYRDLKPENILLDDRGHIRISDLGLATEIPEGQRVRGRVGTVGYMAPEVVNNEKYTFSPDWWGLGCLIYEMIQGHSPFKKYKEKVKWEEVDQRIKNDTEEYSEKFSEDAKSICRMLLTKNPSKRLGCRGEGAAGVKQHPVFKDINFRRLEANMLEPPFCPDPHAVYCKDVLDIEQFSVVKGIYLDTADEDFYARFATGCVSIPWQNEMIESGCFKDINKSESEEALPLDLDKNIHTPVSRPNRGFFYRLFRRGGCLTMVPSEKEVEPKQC

[5] = system: Mast/stem cell growth factor receptor Kit (Homo sapiens), P10721 [D816H]; assay: Inhibition of KIT D816H mutant (unknown origin) assessed as residual activity at 100 nM by KINOMEscan analysis relative to control
Sequence of Mast/stem cell growth factor receptor Kit (Homo sapiens), P10721 [D816H] (P10721 whole entry D816H): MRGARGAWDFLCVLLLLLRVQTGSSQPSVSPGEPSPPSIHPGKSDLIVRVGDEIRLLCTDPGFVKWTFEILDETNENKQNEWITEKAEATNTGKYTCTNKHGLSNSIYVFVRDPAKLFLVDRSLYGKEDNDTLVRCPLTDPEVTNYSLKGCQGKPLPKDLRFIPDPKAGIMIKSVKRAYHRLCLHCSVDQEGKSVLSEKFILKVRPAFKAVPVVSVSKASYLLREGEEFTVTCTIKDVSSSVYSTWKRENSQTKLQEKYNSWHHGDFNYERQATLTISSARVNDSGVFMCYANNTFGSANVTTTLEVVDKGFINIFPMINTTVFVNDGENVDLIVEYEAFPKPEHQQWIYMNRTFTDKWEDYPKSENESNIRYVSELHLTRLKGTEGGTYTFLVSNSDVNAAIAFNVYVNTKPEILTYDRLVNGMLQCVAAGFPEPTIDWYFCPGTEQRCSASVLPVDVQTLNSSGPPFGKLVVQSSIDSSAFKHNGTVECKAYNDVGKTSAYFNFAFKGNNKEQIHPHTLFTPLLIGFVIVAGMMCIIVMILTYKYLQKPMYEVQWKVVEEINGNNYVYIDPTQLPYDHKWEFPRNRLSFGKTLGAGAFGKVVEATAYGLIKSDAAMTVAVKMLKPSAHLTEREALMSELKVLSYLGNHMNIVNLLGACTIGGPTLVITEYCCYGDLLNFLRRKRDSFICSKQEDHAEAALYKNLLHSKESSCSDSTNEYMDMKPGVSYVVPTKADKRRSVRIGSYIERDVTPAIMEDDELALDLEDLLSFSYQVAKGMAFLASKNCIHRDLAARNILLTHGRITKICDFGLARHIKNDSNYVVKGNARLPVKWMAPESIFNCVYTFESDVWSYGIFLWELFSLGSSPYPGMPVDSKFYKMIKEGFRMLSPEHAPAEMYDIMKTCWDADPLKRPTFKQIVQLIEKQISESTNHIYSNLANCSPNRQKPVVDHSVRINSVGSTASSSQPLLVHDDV

[6] = molecular target: T2, Mitogen-activated protein kinase kinase kinase kinase 2 (Homo sapiens) (UniProt Q12851); assay: Inhibition of MAP4K2 (unknown origin) assessed as residual activity at 100 nM by KINOMEscan analysis relative to control
T2 sequence (whole entry): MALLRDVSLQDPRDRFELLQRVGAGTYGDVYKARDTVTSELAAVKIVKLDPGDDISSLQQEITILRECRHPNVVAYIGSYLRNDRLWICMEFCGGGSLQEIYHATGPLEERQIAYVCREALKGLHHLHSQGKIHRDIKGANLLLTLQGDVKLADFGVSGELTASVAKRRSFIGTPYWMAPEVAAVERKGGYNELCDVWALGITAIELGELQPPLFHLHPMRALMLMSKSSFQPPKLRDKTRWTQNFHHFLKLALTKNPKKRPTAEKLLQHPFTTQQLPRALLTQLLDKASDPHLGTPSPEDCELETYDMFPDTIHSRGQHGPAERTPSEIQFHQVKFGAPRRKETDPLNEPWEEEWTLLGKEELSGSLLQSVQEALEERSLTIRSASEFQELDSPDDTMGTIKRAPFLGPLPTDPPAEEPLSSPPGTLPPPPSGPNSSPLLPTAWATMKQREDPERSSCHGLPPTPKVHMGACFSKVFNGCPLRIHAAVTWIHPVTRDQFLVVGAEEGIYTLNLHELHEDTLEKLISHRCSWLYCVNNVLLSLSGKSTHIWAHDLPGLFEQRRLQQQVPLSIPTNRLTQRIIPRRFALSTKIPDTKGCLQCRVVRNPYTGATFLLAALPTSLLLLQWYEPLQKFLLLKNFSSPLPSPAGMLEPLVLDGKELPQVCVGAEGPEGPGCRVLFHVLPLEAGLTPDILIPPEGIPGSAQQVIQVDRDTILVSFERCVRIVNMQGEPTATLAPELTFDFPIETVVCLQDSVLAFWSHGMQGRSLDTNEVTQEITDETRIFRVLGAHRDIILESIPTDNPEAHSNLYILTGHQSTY

[7] = system: Hepatocyte growth factor receptor (Homo sapiens), P08581 [M1250T]; assay: Inhibition of MET M1250T mutant (unknown origin) assessed as residual activity at 100 nM by KINOMEscan analysis relative to control
[8] = system: Phosphatidylinositol 4,5-bisphosphate 3-kinase catalytic subunit alpha isoform (Homo sapiens), P42336 [E545A]; assay: Inhibition of PIK3CA E545A mutant (unknown origin) assessed as residual activity at 100 nM by KINOMEscan analysis relative to control
Sequence of Phosphatidylinositol 4,5-bisphosphate 3-kinase catalytic subunit alpha isoform (Homo sapiens), P42336 [E545A] (P42336 whole entry E545A, canonical isoform): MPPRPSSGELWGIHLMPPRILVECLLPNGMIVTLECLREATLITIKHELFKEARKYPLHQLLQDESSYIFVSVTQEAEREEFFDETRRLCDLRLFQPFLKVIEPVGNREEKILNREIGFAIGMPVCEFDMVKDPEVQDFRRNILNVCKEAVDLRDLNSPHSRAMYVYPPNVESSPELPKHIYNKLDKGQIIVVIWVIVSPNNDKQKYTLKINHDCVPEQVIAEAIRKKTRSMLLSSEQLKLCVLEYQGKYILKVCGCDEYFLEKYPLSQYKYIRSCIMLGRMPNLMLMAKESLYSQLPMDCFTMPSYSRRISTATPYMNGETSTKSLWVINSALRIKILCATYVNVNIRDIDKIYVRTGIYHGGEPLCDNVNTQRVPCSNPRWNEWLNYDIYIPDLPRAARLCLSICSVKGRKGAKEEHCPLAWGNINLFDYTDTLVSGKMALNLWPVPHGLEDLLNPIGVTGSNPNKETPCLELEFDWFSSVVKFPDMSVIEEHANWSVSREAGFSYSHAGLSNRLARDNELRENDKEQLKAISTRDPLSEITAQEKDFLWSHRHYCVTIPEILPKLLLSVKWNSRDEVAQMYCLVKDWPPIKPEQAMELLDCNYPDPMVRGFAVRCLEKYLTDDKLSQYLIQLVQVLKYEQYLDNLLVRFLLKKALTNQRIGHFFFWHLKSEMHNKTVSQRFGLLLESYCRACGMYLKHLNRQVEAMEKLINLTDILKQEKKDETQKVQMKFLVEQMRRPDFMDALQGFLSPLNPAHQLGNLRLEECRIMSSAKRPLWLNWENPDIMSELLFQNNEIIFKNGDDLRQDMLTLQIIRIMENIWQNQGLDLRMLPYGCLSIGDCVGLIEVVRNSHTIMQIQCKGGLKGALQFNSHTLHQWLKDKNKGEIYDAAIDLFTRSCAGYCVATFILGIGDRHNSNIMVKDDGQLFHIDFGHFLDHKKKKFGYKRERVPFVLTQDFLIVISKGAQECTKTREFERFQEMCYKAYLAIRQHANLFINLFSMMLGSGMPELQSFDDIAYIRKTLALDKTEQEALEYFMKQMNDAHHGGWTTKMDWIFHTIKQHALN

Compound: COc1cc2ncnc(N[C@H](C)c3cccc4ccccc34)c2cc1OC
- Activity [1]: 100%
- Activity [2]: 92%
- Activity [3]: 100%
- Activity [4]: 62%
- Activity [5]: 89%
- Activity [6]: 83%
- Activity [7]: 95%
- Activity [8]: 93%
